From paper PMC8151276, “An Integrated Approach toward NanoBRET Tracers for Analysis of GPCR Ligand Engagement” (Molecules, 2021)

Molecular target: T1, DRD2 (Homo sapiens, UniProt P14416)
T1 construct: purchased Promega (in-house HiBiT-GPCR construct library, NanoBRET)
Assay: NanoBRET screen HiBiT-DRD2 in HEK293
Format: binding
Experimental: Each tracer candidate was screened across the entire library of HiBiT-GPCR constructs using NanoBRET as the detection modality. As depicted in Figure 4A, the specificity of interactions was evaluated through decrease in BRET due to competitive displacement of a bound tracer by excess parental compound. Each tracer was analyzed for binding to each HiBiT-GPCR fusion in the absence and in the presence of competing parental compound. Briefly, HEK293 cells were transfected with HiBiT-GPCR constructs diluted into promoterless DNA to reduce expression and maximize translocation to the cell surface. Each tracer candidate was then screened at concentrations of 1 μM and 0.1 μM across cells expressing these fusions. Cells were treated for 1.5 h with tracer either alone or in the presence of 20 μM competing parental compound (i.e., control). BRET was measured upon addition of purified LgBiT and subsequent complementation with HiBiT genetically fused to a GPCR. The specificity of interactions was assessed through a decrease in BRET signal due to competitive displacement of the bound tracer. To further gauge the robustness of these interactions, the fold response over the control (i.e., BRETtracer/BRETcontrol) was calculated. We chose a 1.5-fold response, which translates to ≥7-fold signal over noise as the minimal threshold required to score an interaction as positive.
HiBiT-GPCR DNA constructs were diluted in 10 mM Tris pH 8 to a final concentration of 0.01 μg/μL, arrayed in 96-well plates and stored at −20 °C. For transfection, HEK293 cells were suspended in Opti-MEM (without phenol red) supplemented with 2% fetal bovine serum (Seradigm) and 100 units/mL penicillin–streptomycin (Gibco) at a final concentration of 220,000 cells/mL and dispensed into white 96-well plates at 90 μL/well. Subsequent transfections and screens were carried using an Agilent Bravo Automated Liquid Handling Platform. First, the 96-well HiBiT DNA arrays were diluted 25-fold in Opti-MEM (without serum or phenol red) to a final concentration of 0.0004 μg/μL and 20 μL of the diluted DNAs were transferred into new 96-well plates. Next, promoterless carrier DNA (1 μg/μL) was diluted 25-fold (0.04 μg/μL) and then dispensed into the diluted arrays at 20 μL/well. Following brief mixing, Viafect transfection reagent (Promega) diluted 16-fold into Opti-MEM was dispensed into the plates at 40 μL/well. After mixing by pipetting, plates were incubated for 10 min on the pipetting station deck. The DNA-transfection reagent complexes were then added to plates containing cells. To facilitate the screen, 10 μL of DNA-transfection reagent complexes were added in duplicates to the top 4 and bottom 4 rows, resulting in two identical 48-well arrays per plate. Plates with transfected cells were incubated for 18–20 h at 37 °C/5% CO2. A screen of each tracer across the entire library using two different concentrations requires duplicate plates of transfected cells. Depending on the number of tracers being screened, transfections can be scaled up using the same ratios. The next day, for each tracer, four 20× screening solutions in tracer dilution buffer (Promega) were prepared: two duplicates at final concentration of 20 μM and two duplicates at a final concentration of 2 μM. […] The four resulting solutions were diluted 4-fold in Opti-MEM without serum or phenol red to generate 5× solutions (5 µM and 0.5 µM tracer +/− 100 μM competing compound). To screen the library, a BioTek MultiFlo FX liquid dispenser was used to dispense 22.5 µL of tracer solution to the top 4 rows and 22.5 µL tracer + competing compound solution to the 4 bottom rows. Plates were briefly mixed on an orbital shaker and incubated for 1.5 h at room temperature. […] Plates were briefly mixed on an orbital shaker and incubated for 15 min to allow complementation.

T1 sequence (P14416 whole entry): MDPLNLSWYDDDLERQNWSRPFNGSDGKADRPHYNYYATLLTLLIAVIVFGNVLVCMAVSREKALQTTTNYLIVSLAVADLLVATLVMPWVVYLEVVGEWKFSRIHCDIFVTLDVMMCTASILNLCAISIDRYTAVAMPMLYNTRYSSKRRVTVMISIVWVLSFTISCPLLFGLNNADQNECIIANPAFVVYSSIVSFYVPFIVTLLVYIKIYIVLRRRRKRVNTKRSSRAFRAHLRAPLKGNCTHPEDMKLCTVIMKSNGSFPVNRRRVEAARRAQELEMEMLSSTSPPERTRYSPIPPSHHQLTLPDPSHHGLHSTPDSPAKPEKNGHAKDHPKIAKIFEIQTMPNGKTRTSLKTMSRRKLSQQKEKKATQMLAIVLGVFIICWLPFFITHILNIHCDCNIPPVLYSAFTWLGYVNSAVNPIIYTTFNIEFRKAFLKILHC

Row | SMILES | NanoBRET Fold Response (DRD2, tracer 0.1μM) | NanoBRET Fold Response (DRD2, tracer 1μM) | further results
1 | CCOC(=O)c1cc(C#N)c(N2CCC(C(=O)NS(=O)(=O)Cc3ccccc3/C=C/C(=O)NCCNC(=O)CCc3ccc4n3[B-](F)(F)[N+]3=C(c5ccc[nH]5)C=CC3=C4)CC2)nc1C [AZD1283-1-NB590] | – | – | NanoBRET Fold Response (DRD2, 0.1μM): 1.04; NanoBRET Fold Response (DRD2, 1μM): 1.08
2 | N#CN/C(=N\CCNC(=O)c1ccc(N)cc1)NCCCOc1cccc(CN2CCCCC2)c1 [Aminopotentidine (unmodified)] | – | – | NanoBRET Fold Response (DRD2, other tracers/Aminopotentidine (unmodified), 0.1μM): 1.53; NanoBRET Fold Response (DRD2, other tracers/Aminopotentidine (unmodified), 1μM): 1.51
3 | N#CN=C(NCCCOc1cccc(CN2CCCCC2)c1)NCCNC(=O)CCOCCOCCOCCOCCNC(=O)CCc1ccc2n1[B-](F)(F)[N+]1=C(c3ccc[nH]3)C=CC1=C2 [Aminopotentidine-2-NB590] | 1.18 | 1.22 | –
4 | CN(C)CCC=C1c2ccccc2CCc2ccc(C(=O)NCCNC(=O)CCOCCOCCOCCOCCNC(=O)CCc3ccc4n3[B-](F)(F)[N+]3=C(c5ccc[nH]5)C=CC3=C4)cc21 [Amitriptyline-a-2-NB590] | – | – | NanoBRET Fold Response (tracer at 0.1μM): 1.50; NanoBRET Fold Response (tracer at 1μM): 1.97
5 | CN(C)CCC=C1c2ccccc2CCc2ccc(C(=O)NCCNC(=O)CCOCCOCCOCCOCCNC(=O)CCc3ccc4n3[B-](F)(F)[N+]3=C(c5ccc[nH]5)C=CC3=C4)cc21 [Amitriptyline-b-2-NB590] | – | – | NanoBRET Fold Response (tracer at 0.1μM, listed as amitriptyline-b-2-NB590): 1.54
6 | CN(CCC=C1c2ccccc2CCc2ccccc21)C(=O)CCOCCOCCOCCOCCNC(=O)CCc1ccc2n1[B-](F)(F)[N+]1=C(c3ccc[nH]3)C=CC1=C2 [Amitriptyline-e-2-NB590] | – | – | NanoBRET Fold Response (tracer at 1μM): 1.34
7 | COc1ccc2c(n1)c(CCNC(C)=O)cn2CCNC(=O)CCc1ccc2n1[B-](F)(F)[N+]1=C(c3ccc[nH]3)C=CC1=C2 [Azamelatonin-1-NB590] | – | – | NanoBRET Fold Response (0.1μM tracer): 1.19; NanoBRET Fold Response (1μM tracer): 0.52
8 | COc1ccc2[nH]c(-c3ccc(CNC(=O)CCOCCOCCOCCOCCNC(=O)CCc4ccc5n4[B-](F)(F)[N+]4=C(c6ccc[nH]6)C=CC4=C5)cc3)c(CCNC(C)=O)c2n1 [AzomelatoninICO9-2-NB590] | – | – | NanoBRET Fold Response (0.1μM tracer): 1.00; NanoBRET Fold Response (1μM tracer): 1.03
9 | O=C(CCOCCOCCOCCOCCNC(=O)CCc1ccc2n1[B-](F)(F)[N+]1=C(c3ccc[nH]3)C=CC1=C2)NCCCN1CCN(C2=Nc3cc(Cl)ccc3Nc3ccccc32)CC1 [Clozapine-a-2-NB590] | – | – | NanoBRET Fold Response (DRD2, 0.1μM tracer): 2.85; NanoBRET Fold Response (DRD2, 1μM tracer): 2.37
10 | O=C(CCOCCOCCOCCOCCNC(=O)CCc1ccc2n1[B-](F)(F)[N+]1=C(c3ccc[nH]3)C=CC1=C2)NCCCN1CCN(C2=Nc3ccccc3Oc3ccc(Cl)cc32)CC1 [Loxapine-a-2-NB590] | 1.97 | 1.62 | –
11 | COc1ccccc1N1CCN(CCCCN2C(=O)c3ccc(CNC(=O)CCOCCOCCOCCOCCNC(=O)CCc4ccc5n4[B-](F)(F)[N+]4=C(c6ccc[nH]6)C=CC4=C5)cc3C2=O)CC1 [NAN-190-2-NB590] | 2.31 | 1.36 | –
12 | COc1ccccc1N1CCN(CCCCN2C(=O)c3ccc(CNC(=O)CCOCCNC(=O)c4ccc(CNC(=O)CCc5ccc6n5[B-](F)(F)[N+]5=C(c7ccc[nH]7)C=CC5=C6)cc4)cc3C2=O)CC1 [NAN-190-3-NB590] | 1.80 | 1.21 | –
13 | O=C(CCc1ccc2n1[B-](F)(F)[N+]1=C(c3ccc[nH]3)C=CC1=C2)NCc1ccc(C(=O)NCCOCCC(=O)N[C@@H]2CC[C@@]3(O)[C@H]4Cc5ccc(O)c6c5[C@@]3(CCN4CC3CC3)[C@H]2O6)cc1 [Naltrexone-3-NB590] | 0.98 | 1.36 | –
14 | Cc1cc2c(s1)Nc1ccccc1N=C2N1CCN(CCCNC(=O)CCOCCOCCOCCOCCNC(=O)CCc2ccc3n2[B-](F)(F)[N+]2=C(c4ccc[nH]4)C=CC2=C3)CC1 [Olanzapine-a-2-NB590] | 1.98 | 2.25 | –
15 | O=C(CCc1ccc2n1[B-](F)(F)[N+]1=C(c3ccc[nH]3)C=CC1=C2)NCc1ccc(C(=O)NCCOCCOCCNCC(O)COc2cccc3ccccc23)cc1 (centres unmarked) [Propranolol-3-NB590] | – | – | NanoBRET Fold Response (DRD2, 0.1μM): 1.17; NanoBRET Fold Response (DRD2, 1μM): 1.09
16 | O=C(CCc1ccc2n1[B-](F)(F)[N+]1=C(c3ccc[nH]3)C=CC1=C2)NCCOCCOCCNC(=O)OCCOCCN1CCN(C2=Nc3ccccc3Sc3ccccc32)CC1 [Quetiapine-a-2-NB590] | 1.86 | 1.76 | –
17 | Cc1nc2n(c(=O)c1CCN1CCC(c3noc4cc(F)ccc34)CC1)CCCC2OC(=O)NCCOCCOCCOCCOCCNC(=O)CCc1ccc2n1[B-](F)(F)[N+]1=C(c3ccc[nH]3)C=CC1=C2 (centres unmarked) [Risperidone-2-NB590] | 2.85 | 2.07 | –
18 | CC(C)N(CC[C@H](c1ccccc1)c1cc(CCNC(=O)CCOCCOCCOCCOCCNC(=O)CCc2ccc3n2[B-](F)(F)[N+]2=C(c4ccc[nH]4)C=CC2=C3)ccc1O)C(C)C [Tolterodine-2-NB590] | 1.07 | 1.09 | –
19 | CC(C)N(CC[C@H](c1ccccc1)c1cc(CCNC(=O)c2ccc(CNC(=O)CCc3ccc4n3[B-](F)(F)[N+]3=C(c5ccc[nH]5)C=CC3=C4)cc2)ccc1O)C(C)C [Tolterodine-BZ-NB590] | 1.34 | 1.78 | –
20 | CCCn1c(=O)c2[nH]c(-c3ccc(OCC(=O)NCCNC(=O)CCOCCNC(=O)c4ccc(CNC(=O)CCc5ccc6n5[B-](F)(F)[N+]5=C(c7ccc[nH]7)C=CC5=C6)cc4)cc3)nc2n(CCC)c1=O [XAC-3-NB590] | 1.17 | 1.85 | –
